Values quoted from earlier work, collected in patent publication US6579533B1, “Bioabsorbable drug delivery system for local treatment and prevention of infections” (Bioasborbable Concepts, Ltd., priority 1999, dated 2003).

Test system: most microbial strains

In the case of `O=C(O)c1cn(C2CC2)c2cc(N3CCNCC3)c(F)cc2c1=O` [ciprofloxacin], the “minimum inhibition concentration (MIC)” value is given as under 2 µg/mL.
